From PubChem BioAssay AID608 (Sanford-Burnham Center for Chemical Genomics, 2007)
pKd: −log10 of the molar value. The source made the active and inactive calls. The rule behind the calls is not given here.

The compounds below were run against Peptidyl-prolyl cis-trans isomerase FKBP1A (Homo sapiens) (UniProt P62942) (assay: FKBP12 binders, biophysical, NMR detection (AID 608)). Settings: NMR binding, purified FKBP12.
Sequence of Peptidyl-prolyl cis-trans isomerase FKBP1A (Homo sapiens) (P62942 whole entry, looked up): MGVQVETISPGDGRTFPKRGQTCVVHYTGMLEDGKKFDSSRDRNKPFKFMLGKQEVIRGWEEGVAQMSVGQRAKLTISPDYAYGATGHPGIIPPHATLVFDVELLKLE
For `C=CCc1ccc2c(c1)OCO2`, the Kd was > 4 mM (inactive). In the case of `COc1ccc2c(Cl)c(C(=O)N3CCOCC3)sc2c1Cl`, the Kd was “inactive”. In the case of `S=c1nc2c(n[nH]1)[nH]c1ccccc12`, the Kd was > 4 mM (inactive). With `Cc1c(C(=O)Nn2cnnc2)oc2ccccc12` the Kd was > 4 mM (inactive). `Cc1ccc(SCc2cc(=O)n3[nH]cnc3n2)cc1` was tested, and the Kd was > 4 mM (inactive). `COC(CC(=O)O)c1nc2ccccc2s1` (stereo not given) was tested, and the Kd was > 4 mM (inactive). With `O=C1C2C3C=CC(C3)C2C(=O)N1c1cccnc1` (stereo not given) the Kd was > 4 mM (inactive). `COc1cc2c(cc1OC)[C@@H]1C(=O)c3ccc4c(c3O[C@@H]1CO2)C=CC(C)(C)O4` was tested, and the Kd was > 4 mM (inactive). With `Nc1nc(SCc2ccc3c(c2)OCCO3)n[nH]1` the Kd was > 4 mM (inactive). `Cc1ccc(C(O)c2nccn2C)o1` (stereo not given) was tested, and the Kd was > 4 mM (inactive). For `NC(=O)C1CCN(C(=O)c2ccco2)CC1`, the Kd was > 4 mM (inactive). For `CCOC(=O)c1c(C)cc(OC)cc1O`, the Kd was > 4 mM (inactive). For `CC(=O)CC(=O)N1C(O)CC[N+]1(C)C` (stereo not given), the Kd was > 4 mM (inactive). With `O=C(O)C1CC(=O)N(Cc2ccc(F)cc2)C1` (stereo not given) the Kd was > 4 mM (inactive). With `CN(C)c1nc(N2CCOCC2)nc(N2CCOCC2)n1` the Kd was > 4 mM (inactive). `O=c1c2ccccc2oc2ccc(O)cc12` was tested, and the Kd was > 4 mM (inactive). In the case of `Cc1nc(-c2cnccn2)sc1C(=O)O`, the Kd was > 4 mM (inactive). For `Cc1nn(-c2ccccc2)nc1C(=O)O`, the Kd was > 4 mM (inactive). `Cc1cc(C(=O)NC(C)c2ccncc2)cs1` (stereo not given) was tested, and the Kd was > 4 mM (inactive). With `CN1C(=O)CC(=O)N(C)c2ccccc21` the Kd was > 4 mM (inactive). With `CN(C)C(=O)N1CCN(C(=O)c2ccco2)CC1` the Kd was > 4 mM (inactive). `Cc1cc(C)nc(/N=C(/N)Nc2cccc(F)c2)n1` was tested, and the Kd was > 4 mM (inactive). For `O=c1ccc2nc3ccccc3c(=O)n2[nH]1`, the Kd was > 4 mM (inactive). For `CCOC(=O)c1cc(C)n(-n2cnnc2)c1C`, the Kd was > 4 mM (inactive). With `COc1c(C)c2c(c(O)c1C/C=C(\C)CCC(=O)O)C(=O)OC2` the Kd was > 4 mM (inactive). With `CC(=O)Oc1ccc(-c2nc(-c3cccnc3)no2)cc1` the Kd was > 4 mM (inactive). `COc1ccc(/C=C2/C(=O)N=C(N)N2C)cc1OC` was tested, and the Kd was > 4 mM (inactive). For `NC(=O)CN1CC(=O)NC(=O)C1`, the Kd was > 4 mM (inactive). In the case of `O=c1c2ccccc2nc2n1CCC2O` (stereo not given), the Kd was > 4 mM (inactive). `COc1ccc2c(c1)OC/C(=C/c1ccc(OC)c(OC)c1)C2=O` was tested, and the Kd was > 4 mM (inactive). With `Cc1ccc(NS(=O)(=O)c2ccc(OCC(=O)N3CCOCC3)cc2)cc1` the Kd was “inactive”. In the case of `CN(C)c1ccc(C2CC(=O)CC(=O)C2)cc1`, the Kd was > 4 mM (inactive). For `Cc1ccc(NS(=O)(=O)N2CCCCC2)cc1`, the pKd was 3.37. For `O=C(CC1NC(=O)NC1=O)Nc1ccccc1` (stereo not given), the Kd was > 4 mM (inactive). With `CC(=O)Nc1ccc(CN2CCOCC2)cc1` the Kd was > 4 mM (inactive). `CC1(C)O[C@H]2CC(=O)OC[C@]23[C@H]2CC[C@@]4(C)[C@H](c5ccoc5)OC(=O)[C@H]5O[C@]54[C@]2(C)C(=O)C[C@@H]13` was tested, and the Kd was > 4 mM (inactive). In the case of `COc1ccc(NS(=O)(=O)c2ccc(N)cc2)nn1`, the Kd was > 4 mM (inactive). With `C/C=C1\[C@H]2C=C(C)C[C@]1(N)c1ccc(=O)[nH]c1C2` the Kd was > 4 mM (inactive). For `O=C(Nc1ccc2c(c1)OCO2)c1ccc(=O)[nH]n1`, the Kd was > 4 mM (inactive). For `NS(=O)(=O)c1ccc(NC(=O)c2ccccc2F)cc1`, the Kd was > 4 mM (inactive). With `COc1ccc2c(c1OC)C(=O)OC2[C@H]1c2c(cc3c(c2OC)OCO3)CCN1C` (stereo not given in full) the Kd was > 4 mM (inactive). `O=C(Nc1cccc(Cl)c1Cl)c1ccccc1OCC(=O)N1CCOCC1` was tested, and the Kd was > 4 mM (inactive). In the case of `Cc1ccc(NC(=O)N2CCC(C(N)=O)CC2)cc1`, the Kd was > 4 mM (inactive). In the case of `Cc1ccnc(NS(=O)(=O)c2ccccc2)n1`, the Kd was > 4 mM (inactive). With `CN(C)S(=O)(=O)c1ccc(C(=O)NN)cc1` the Kd was > 4 mM (inactive). In the case of `CC(=O)Nc1nnc(-c2ccccc2S(C)(=O)=O)o1`, the Kd was > 4 mM (inactive). For `Cc1cc(O)c(C)c(O)c1C(=O)O`, the Kd was > 4 mM (inactive). `O=C(O)C(O)C(O)C(O)C(O)C(=O)O` (stereo not given) was tested, and the Kd was > 4 mM (inactive). In the case of `Cc1nc(-c2cc(C(=O)O)no2)cs1`, the Kd was > 4 mM (inactive). `COC(=O)c1cc(-c2c(C)nn(-c3ccccc3)c2C)n[nH]1` was tested, and the Kd was > 4 mM (inactive). For `Cc1nc2cc(Cl)ccc2n1CCO`, the Kd was > 4 mM (inactive). For `Cc1cc(=O)n2nc(-c3ccccc3)sc2n1`, the Kd was > 4 mM (inactive). `O=C1CSC2(CN3CCC2CC3)N1` (stereo not given) was tested, and the Kd was > 4 mM (inactive). `NC(=O)C(=O)NCc1ccc(Cl)cc1` was tested, and the Kd was > 4 mM (inactive). With `Nc1cccc(NC(=O)c2ccco2)c1` the Kd was > 4 mM (inactive). In the case of `CC(=O)Nc1ccc(C(=O)N2CCOCC2)cc1Cl`, the Kd was > 4 mM (inactive). For `O=[n+]1cc(C2=CC=CCC2)n([O-])c2c1CCCCC2`, the Kd was > 4 mM (inactive). With `O=C(O)/C=C/C(=O)Nc1ccccc1C(F)(F)F` the Kd was > 4 mM (inactive). `Cc1ccc(N2C(=O)CCC2=O)cc1` was tested, and the Kd was > 4 mM (inactive). In the case of `CCc1c(C)[nH]c(=S)c(C(N)=O)c1C`, the Kd was > 4 mM (inactive).
